Experimental data as given in US20060240014A1, “Methods and compounds for the treatment of vascular stenosis” (Beth Israel Deaconess Medical Center, priority 2003, published 2006).
Structures can show the parent of a compound that is named as a salt.

Tested on: human aortic vascular smooth muscle cells (HASOM cells)
Experiment: hPDGF-BB induced migration of human aortic vascular smooth muscle cells (Boyden chamber)
Format: cell-based
Details: 20 ng/ml hPDGF-BB, 48 hours drug pre-incubation, 12 hours migration, dose dependent (FIG. 1)
Method: Drug concentrations for G are in ng/mL and for R are in pg/mL. The first lane has no PDGF added and the first two lanes have no drug compounds added. The results are expressed as means±S.E.M. of triplicate readings.
In vitro studies were performed to examine the dose response of Gleevec and rapamycin on human aortic vascular smooth muscle cells (HASOM cells). Cell migration was measured using a 24-well Boyden-chamber (Corning Costar Corp, Cambridge, Mass.). […] These membranes were coated with 0.1% gelatin for eight hours, then aspirated and allowed to dry for two hours. The cells were allowed to grow to 70% confluence and then treated with media containing 1% fetal calf serum and drug compounds (Gleevec alone, rapamycin alone and Gleevec and rapamycin together at the concentrations indicated in FIG. 1) for 48 hours prior to the migration assay. […] The cells were harvested in 0.05% trypsin, resuspended in M-199 media, and seeded on the coated membrane at a concentration of 4000 cells per well with Gleevec and/or rapamycin. The M-199 media containing 0.5% BSA and 20 ng/ml human PDGF-B (hPDGF-BB) was placed in the bottom Boyden chamber. Cells were incubated in 5% CO2 at 37° C. for 12 hours and the cells lying on the upper surface of the membrane were scraped. […] Cell migration was quantified by counting the cells in five random high-power fields on the lower surface of the membrane. […]

Cc1ccc(NC(=O)c2ccc(CN3CCN(C)CC3)cc2)cc1Nc1nccc(-c2cccnc2)n1 [Gleevec, imatinib mesylate]
inhibition of PDGF induced migration of HASOM cells: potently inhibited
